We go through seven compounds from PubChem BioAssay (NCI).

Some test systems named below: K-562 leukemia; A549 NSCLC; HS 578T breast; SF-268 CNS; MDA-MB-231 breast; HCT-116 colon; SNB-75 CNS; SR leukemia; CAKI-1 renal; RXF 393 renal.
Common to all, as to experiment: DTP human tumour cell line panel, 48 h

Structures are written as SMILES.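 Tested at 5 concentrations; 48 h exposure; 96-well plates; endpoints linearly interpolated, else capped at highest concentration. At the GI50, growth is halved. Definition used: TGI = concentration required for complete inhibition of growth.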

Consider `NS(=O)(=O)c1ccc(N=Nc2c(=O)[nH]c3ccc4[nH]cccc4c23)cc1`, for which the GI50 (in general, the concentration giving 50% growth inhibition) with K-562 leukemia was 0.721 µM; with A549 NSCLC it was 1.89 µM; in the experiment on HS 578T breast, 0.575 µM; in the experiment with SF-268 CNS, 0.33 µM; with MDA-MB-231 breast it was 0.885 µM; with HCT-116 colon it was 0.151 µM. The GI50 with SNB-75 CNS was 0.404 µM; in the experiment on SR leukemia, 0.147 µM; in the experiment on CAKI-1 renal, 4.28 µM; in the experiment with RXF 393 renal it was 0.15 µM. The TGI (as a rule, the concentration giving total growth inhibition) in the experiment on K-562 leukemia was greater than 25 µM; in the experiment on A549 NSCLC, greater than 25 µM; with HS 578T breast, greater than 6.85 µM; in the experiment with SF-268 CNS, greater than 5.99 µM; in the experiment on MDA-MB-231 breast, greater than 7.89 µM; in the experiment on HCT-116 colon it was greater than 25 µM. For the same compound, the TGI is 1.3 µM in the experiment on SNB-75 CNS, 0.652 µM with SR leukemia, greater than 25 µM with CAKI-1 renal and 0.449 µM with RXF 393 renal.

Consider `COc1cc[nH]c1/C=C1\C(=O)Nc2ccc([N+](=O)[O-])c(N3CC[C@@H](O)C3)c21`, for which the GI50 was 0.577 µM in the experiment with K-562 leukemia; 0.167 µM in the experiment on A549 NSCLC; 0.353 µM in the experiment on HS 578T breast; 0.255 µM in the experiment with SF-268 CNS; 0.479 µM with MDA-MB-231 breast; 0.0759 µM with HCT-116 colon. Moreover, the GI50 with SNB-75 CNS is 0.0931 µM; in the experiment with SR leukemia, 0.0536 µM; in the experiment on CAKI-1 renal, 0.369 µM; in the experiment on RXF 393 renal, 0.0566 µM. The TGI with K-562 leukemia was found to be 7.57 µM; in the experiment on A549 NSCLC, 2.18 µM; in the experiment with HS 578T breast, 6.33 µM; in the experiment on SF-268 CNS, 1.29 µM; in the experiment with MDA-MB-231 breast, 2.31 µM; in the experiment on HCT-116 colon it was 25 µM. Besides, the TGI in the experiment with SNB-75 CNS was determined as 0.989 µM; with SR leukemia it was 0.185 µM; in the experiment on CAKI-1 renal, 1.63 µM; in the experiment on RXF 393 renal it was 0.146 µM.

For the compound `CC(=O)N1c2ccc(-c3ccc(C(=O)O)cc3)cc2[C@H](Nc2ccc(Cl)cc2)C[C@@H]1C`, the GI50 in the experiment on K-562 leukemia is 0.168 µM; in the experiment with A549 NSCLC, 1.23 µM; in the experiment with HS 578T breast, 0.0549 µM; with SF-268 CNS, 5.76 µM; in the experiment with MDA-MB-231 breast it was 1.19 µM; with HCT-116 colon, 0.266 µM. Moreover, the GI50 in the experiment with SNB-75 CNS is less than 0.0165 µM; in the experiment on SR leukemia, 0.0342 µM; in the experiment on CAKI-1 renal, 0.0457 µM; in the experiment with RXF 393 renal it was 5.41 µM. In addition, the TGI in the experiment with K-562 leukemia is greater than 55.2 µM; with A549 NSCLC, 28.1 µM; in the experiment on HS 578T breast, greater than 57.9 µM; in the experiment on SF-268 CNS, greater than 90.9 µM; in the experiment with MDA-MB-231 breast it was greater than 100 µM; in the experiment with HCT-116 colon, 15.2 µM. The TGI in the experiment on SNB-75 CNS is greater than 100 µM; in the experiment with SR leukemia, 18.7 µM; in the experiment with CAKI-1 renal it was greater than 100 µM; in the experiment with RXF 393 renal, 40.9 µM.

Turning to `CNCC1CCn2c(c(C3=C(c4cn(C)c5ccccc45)C(=O)NC3=O)c3ccccc32)C1` (stereo not given), the GI50 in the experiment on K-562 leukemia is 3.29 µM; with A549 NSCLC it was 3.16 µM; with HS 578T breast, 2.9 µM; with SF-268 CNS, 4.17 µM; in the experiment on MDA-MB-231 breast, 2.54 µM; in the experiment on HCT-116 colon it was 1.82 µM. Moreover, the GI50 in the experiment with SNB-75 CNS is 0.972 µM; in the experiment on SR leukemia, 1.79 µM; in the experiment with CAKI-1 renal, 3.68 µM; with RXF 393 renal it was 3.09 µM. For the same compound, the TGI came out at 8.41 µM with K-562 leukemia; 10.6 µM with A549 NSCLC; 8.7 µM in the experiment with HS 578T breast; 8.97 µM in the experiment with SF-268 CNS; 7.27 µM in the experiment on MDA-MB-231 breast; 5.56 µM in the experiment with HCT-116 colon. For the same compound, the TGI in the experiment on SNB-75 CNS was found to be 4.66 µM; with SR leukemia, 8.78 µM; in the experiment on CAKI-1 renal it was 9.28 µM; in the experiment on RXF 393 renal it was 6.78 µM.

Turning to `COc1cc(OC)c2c(c1Cl)O[C@]1(C2=O)C(OCc2ccccc2)=CC(=O)C[C@H]1C`, the GI50 with K-562 leukemia is 0.538 µM; with A549 NSCLC it was 0.769 µM; in the experiment on HS 578T breast, 3.17 µM; with SF-268 CNS, 1.82 µM; in the experiment with MDA-MB-231 breast, 1.22 µM; with HCT-116 colon, 0.46 µM. Further, the GI50 is 0.936 µM in the experiment on SNB-75 CNS, 0.331 µM in the experiment with SR leukemia, 0.656 µM with CAKI-1 renal and 0.899 µM in the experiment on RXF 393 renal. Also, the TGI with K-562 leukemia is 29.1 µM; in the experiment with A549 NSCLC, greater than 100 µM; in the experiment with HS 578T breast, 32.5 µM; in the experiment on SF-268 CNS it was 53.8 µM; in the experiment with MDA-MB-231 breast it was 5.02 µM; in the experiment on HCT-116 colon, greater than 100 µM. The TGI came out at 27.4 µM with SNB-75 CNS, 10.8 µM with SR leukemia, 60.6 µM in the experiment on CAKI-1 renal and 29.1 µM in the experiment on RXF 393 renal.

On to `CN1C(=O)C(C)(C)Oc2c(-c3cn(C)c(=O)c4[nH]ccc34)cc(S(C)(=O)=O)cc21`, for which the GI50 in the experiment on K-562 leukemia was 0.765 µM; in the experiment on A549 NSCLC, 0.989 µM; in the experiment with HS 578T breast it was 0.425 µM; in the experiment with SF-268 CNS it was 3.99 µM; with MDA-MB-231 breast, 0.664 µM; in the experiment on HCT-116 colon, 1.13 µM. Besides, the GI50 in the experiment with SNB-75 CNS was 0.155 µM; with SR leukemia, 0.469 µM; with CAKI-1 renal, 0.271 µM; in the experiment on RXF 393 renal it was 1.59 µM. Moreover, the total growth inhibition concentration (TGI) with K-562 leukemia is greater than 100 µM; in the experiment with A549 NSCLC, greater than 100 µM; in the experiment on HS 578T breast, 6.71 µM; in the experiment with SF-268 CNS, greater than 100 µM; in the experiment with MDA-MB-231 breast, greater than 100 µM; with HCT-116 colon it was 12.2 µM. The TGI with SNB-75 CNS was 1.49 µM; in the experiment on SR leukemia, greater than 100 µM; with CAKI-1 renal, 16.1 µM; in the experiment with RXF 393 renal it was 7.12 µM.

Turning to `Cn1c(=O)c2[nH]cnc2n(C)c1=O.[CH2-]C(Cc1cccc2cc(C(=O)O)c(=O)oc12)OC.[Hg+2].[OH-]` (stereo not given), the GI50 is 18.9 µM in the experiment with K-562 leukemia; 19 µM with A549 NSCLC; 22.2 µM with HS 578T breast; 16.9 µM in the experiment on SF-268 CNS; 20.9 µM with MDA-MB-231 breast; 16.8 µM with HCT-116 colon. In addition, the GI50 with SNB-75 CNS is 17.7 µM; in the experiment with SR leukemia, 20.8 µM; in the experiment with CAKI-1 renal, 18 µM; in the experiment on RXF 393 renal, 19.3 µM. The TGI with K-562 leukemia amounted to 77.4 µM; in the experiment on A549 NSCLC it was 37.4 µM; in the experiment on HS 578T breast, 57.3 µM; with SF-268 CNS, 30.6 µM; in the experiment on MDA-MB-231 breast, 35.6 µM; in the experiment with HCT-116 colon it was 30.5 µM. The TGI is 32.7 µM in the experiment with SNB-75 CNS, 53.8 µM in the experiment with SR leukemia, 32 µM with CAKI-1 renal and 35.9 µM in the experiment with RXF 393 renal.
